From PubChem BioAssay AID179 (DTP/NCI, 2004)
Active and inactive are the calls of the source.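 The calls were made as follows: active = compounds giving half or more protection of infected cells from virus-caused growth loss, again on retest; inactive = the rest.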 Where a SMILES comes first, the peptide text is derived from it. Bridges are numbered along the chain shown (N, C = ends). Roman numbers before positions name the chains, in order. The star is where a group is joined. Bz = O=C(c1ccccc1)*

System: CEM cells HIV-1 protection, formazan growth assay
Test: NCI AIDS Antiviral Assay
Details: for IC50: measured here: growth of uninfected CEM cells
Method in brief: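 Protection of CEM cells against HIV-1 measured as cell growth via soluble formazan read-out, with five concentrations tested on both infected and uninfected cells; failure to protect may reflect toxicity.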

Row | Structure (SMILES) | outcome | EC50 | IC50
1 | C=C1C(OC(=O)C(OC(C)=O)C(c2ccccc2)N(C)C)C[C@H](OC(C)=O)[C@]2(C)C1C(OC(C)=O)[C@@H]1CC(OC(C)=O)C(C)=C([C@@H](OC(C)=O)C2OC(C)=O)C1(C)C (some centres undefined) | inactive |  | 
2 | COC(=O)C(CSSCC(NC(=O)CNC(=O)c1ccccc1)C(=O)OC)NC(=O)CNC(=O)c1ccccc1 (stereo not drawn) (I: Bz-Gly-Cys-OMe / II: Bz-Gly-Cys-OMe; disulfide I:2-II:2; configuration not given here) |  | > 117 µM | 38.9 µM
3 | Cc1cccc(C)c1N1C(=O)C(=O)C(c2nc3ccccc3s2)C(=Nc2cccc3c(=O)[nH][nH]c(=O)c23)C1=O (centres undefined) | inactive |  | 
4 | CCCCCCC(=O)COP(=O)(OCC(=O)CCCCCC)OCC1OC(n2cc(C)c(=O)[nH]c2=O)CC1N=[N+]=[N-] (centres undefined) |  | 0.00107 µM | 2 µM
5 | NCCCCNCCCNC(=O)c1nc(-c2csc(CCN)n2)sc1Cl |  | > 200 µM | > 200 µM
6 | O=C(O)Cc1ccccc1CCc1ccccc1Cl |  | > 479 µM | 251 µM
7 | O=C1C(c2ccccc2)=C(c2ccccc2)C(c2ccccc2)/C1=C1\C(=O)C(c2ccccc2)=C(c2ccccc2)C1c1ccccc1 (centres undefined) | inactive |  | 
8 | O=[N+]([O-])c1ccc(Cc2ccc([N+](=O)[O-])cc2)cc1 |  | > 28.2 µM | > 28.2 µM
9 | O=S(=O)(c1cc(Cl)ccc1Cl)N1CCN(c2cccc(Cl)c2)CC1 | inactive |  | 
10 | NC(=O)C1CCCN1C(=O)N(CCCl)N=O (centres undefined) |  | > 200 µM | > 200 µM
11 | CN(C)c1ccc(N=O)c(O)c1 |  | > 200 µM | 8.71 µM
12 | N=c1oc2ccc3ccccc3c2cc1C(N)=S |  | > 200 µM | 9.55 µM
13 | CC1=NS(=O)(=O)c2ccccc2N1 |  | > 1260 µM | > 1260 µM
14 | COc1cccc(C2c3cc4c(cc3OC(NNc3ccccc3)C2C)OCO4)c1OC (centres undefined) |  | > 200 µM | 8.13 µM
15 | O=C1C=CC(=O)c2c1ccc1c3ccccc3n(Cc3ccc([N+](=O)[O-])cc3)c21 |  | > 200 µM | 2.82 µM
16 | COc1ccc(NC(=S)Nc2cc(C)ccn2)cc1 |  | > 200 µM | > 200 µM
17 | c1ccc(C(NC2=NCCO2)c2ccccc2)cc1 | inactive |  | 
18 | CCC(Oc1ccc(OC)c2ccccc(=O)c12)C(=O)O (centres undefined) | inactive |  | 
19 | O=c1c2ccccc2[nH]c(=S)n1-c1ccc(Cl)cc1 |  | > 200 µM | > 200 µM
20 | CCCCCCCCCCCCCCCC(=O)OCC(COP(=O)(O)OCCNC(=O)CCSSc1ccccn1)OC(=O)CCCCCCCCCCCCCCC (centres undefined) |  | > 50.1 µM | 37.2 µM
21 | Cc1ccc(S(=O)(=O)Nn2c(C)cc3ccc(S(=O)(=O)Nc4ccccc4[N+](=O)[O-])cc3c2=O)cc1 |  | > 200 µM | 10.2 µM
22 | CN1C(=O)N(c2ccccc2)C2(CCN(CC3COc4ccccc4O3)CC2)C1=O (centres undefined) |  | > 200 µM | > 200 µM

Row | Structure (SMILES) | outcome | EC50 | IC50
23 | S=C(SSC(=S)N1CCCCC1)N1CCCCC1 |  | > 200 µM | 29.5 µM
24 | CCOC(=O)C(=Cc1ccccc1F)C(=O)OCC |  | > 135 µM | 25.7 µM
25 | CC1=C(C(=O)NNC(=O)C[N+](C)(C)C)CC(C(=O)NNC(=O)C[N+](C)(C)C)=C(C)N1 |  | > 200 µM | 95.5 µM
26 | COc1ccc2cc(C(C)C(=O)N3CCOC3=O)ccc2c1 (centres undefined) |  | > 200 µM | > 200 µM
27 | O=S(=O)(O)c1cc(N=Nc2ccc(O)c3ncccc23)ccc1CCc1ccc(N=Nc2ccc(O)c3ncccc23)cc1S(=O)(=O)O |  | 6.31 µM | 42.7 µM
28 | CN(C)CCN1C(=O)c2ccccc2C1(O)c1ccc(Cl)cc1 (centres undefined) |  | > 200 µM | 44.7 µM
29 | C[N+](C)(C)CC(=O)N/N=C(/C=C/c1ccccc1)CC1OC(=O)c2ccccc21 (centres undefined) |  | > 589 µM | > 589 µM
30 | O=[N+]([O-])c1ccc(C(Nc2ccccc2)P(c2ccccc2)c2ccccc2)cc1 (centres undefined) |  | > 200 µM | 43.7 µM
31 | O=C1CC2CCC(C1)S2=O (centres undefined) |  | > 200 µM | > 200 µM
32 | C=CCOc1ccc(C2C(C(=O)OCC)C(=O)CC(C)(O)C2C(=O)OCC)cc1OC (centres undefined) |  | > 200 µM | > 200 µM
33 | Cn1c(=O)c2c3oc(=O)cc(O)c3c(=O)n3c4ccccc4n(c1=O)c23 |  | > 2.14 µM | > 2.14 µM
34 | CCOP(=O)(/C=C/c1ccccc1)OCC | inactive |  | 
35 | CCOC(=O)c1ccccc1NC(=O)CN(CC)CC |  | > 200 µM | > 200 µM
36 | C=C(C)COC(=O)C1CC2OC2CC1C(=O)OCC(=C)C (centres undefined) |  | > 200 µM | 166 µM
37 | CCOC(=O)Cc1nc2cc(F)c(F)cc2[nH]c1=O |  | > 200 µM | > 200 µM
38 | CC1(c2nc3ccccc3[nH]2)CCC(C(=O)O)C(C)(C)O1 (centres undefined) |  | > 200 µM | 151 µM
39 | ClC[Si]12OCCN(CCO1)CCO2 | inactive |  | 
40 | CCOC(=O)c1ccc(CS(=O)(=O)c2ccc(OC)cc2)cc1 |  | > 56.2 µM | > 56.2 µM
41 | O=C(Cc1ccccc1CCO)NCCc1ccccc1 |  | > 200 µM | > 200 µM
42 | COC1=CC(=O)C2C(C1=O)[C@@H]1c3ccccc3C[C@H]21 (some centres undefined) |  | > 195 µM | > 100 µM
43 | COc1ccc(C2=NOC3COC4C=CC=CC4OCC23)cc1 (centres undefined) |  | > 83.2 µM | > 83.2 µM
44 | Cc1ccc(NC(=O)C(=O)C2NC(=S)NC2=O)c([N+](=O)[O-])c1 (centres undefined) |  | > 295 µM | 129 µM

Row | Structure (SMILES) | outcome | EC50 | IC50
45 | O=C(O)CCCNS(=O)(=O)c1ccccc1 | inactive |  | 
46 | OC1(C2(O)c3ccccc3-c3ccccc32)c2ccccc2-c2ccccc21 |  | > 72.4 µM | 41.7 µM
47 | N=C1/C(=C/c2ccc(F)cc2)C(=O)N=C2SC=NN12 |  | > 200 µM | > 200 µM
48 | C=C[C@]1(C)CC[C@]2(C)C(CC[C@@]3(C)C2C[C@H](O)[C@H](O)[C@@]3(C)O)C1 (some centres undefined) |  | > 200 µM | 141 µM
49 | CN1CCN(c2cc3nc(-c4ccc(Cl)cc4)[nH]c3cc2F)CC1 |  | > 200 µM | 11.5 µM
50 | CCCCCN(CCCCC)/N=C/c1c2c(O)c3c(O)c(C)c4c(c3c1O)C(=O)C(C)(O/C=C/C(OC)C(C)C(OC(C)=O)C(C)C(O)C(C)C(O)C(C)/C=C/C=C(C)C(=O)N2)O4 (centres undefined) |  | > 200 µM | 8.32 µM
51 | CC(C)C(F)(C(N)=O)C(=O)O (centres undefined) |  | > 200 µM | > 200 µM
52 | NNC(=S)NC1CC(c2ccccc2)Oc2ccccc21 (centres undefined) | inactive |  | 
53 | CC(=O)N(CCN)CCN | inactive |  | 
54 | Cc1ccccc1N=NC(C(=O)c1ccccc1)C(=O)c1ccccc1 |  | > 20.9 µM | 14.8 µM
55 | CC(O)CN1c2ccccc2Sc2ccccc21 (centres undefined) |  | > 200 µM | > 200 µM
56 | O=C(CC(=O)Nc1ccccc1Cl)NNC(c1cc(N=Nc2ccc(Br)cc2)ccc1O)P(O)O (centres undefined) |  | > 100 µM | 1.32 µM
57 | CCOC(=O)/C=C/c1ccccc1Cl |  | > 33.9 µM | > 33.9 µM
58 | CC1C(c2ccc3c(c2)OCO3)c2cc3c(cc2OC1N1CCCCC1)OCO3 (centres undefined) |  | > 200 µM | 33.9 µM
59 | CCOC(=O)CC(N1CC1)N1CC1 |  | > 200 µM | > 200 µM
60 | O=[N+]([O-])c1c(C=Nc2ccccc2)oc(-c2c(O)ccc3ccccc23)c1-c1c(O)ccc2ccccc12 |  | > 200 µM | 31.6 µM
61 | c1ccc(CN2COc3c(c4c(c5ccccc35)OCN(Cc3ccccc3)C4)C2)cc1 |  | > 61.7 µM | > 61.7 µM
62 | COc1cc(CC(=O)O)c(C(=O)c2ccc(C#N)cc2)cc1OC |  | > 200 µM | > 200 µM
63 | CC(NC(=O)C(NC(=O)CNC(=O)OC(C)(C)C)C(C)C)C(=O)Oc1c(Cl)c(Cl)c(Cl)c(Cl)c1Cl (centres undefined) |  | > 200 µM | 29.5 µM
64 | CCCCC(C)(C/C=C/[C@@H]1[C@@H](C(O)CCCCCC(=O)OC)C(=O)C[C@H]1O[Si](C)(C)C(C)(C)C)O[Si](C)(C)C (some centres undefined) | inactive |  | 
65 | S=C(NNC1=NCCCCN1)Nc1ccccc1 |  | > 200 µM | 112 µM
66 | CCO/C=C1\N=C(c2ccc(Cl)c(Cl)c2)OC1=O |  | > 126 µM | > 126 µM

Row | Structure (SMILES) | outcome | EC50 | IC50
67 | COc1ccc(/C=C2\CN(C)Cc3c2nc(N)nc3-c2ccc(OC)cc2)cc1 |  | > 18.6 µM | > 18.6 µM
68 | Cc1ccc(NC(=O)CC(=O)N2N=C(N(CCC#N)c3cccc(C)c3)CC2c2ccccc2)cc1 (centres undefined) |  | > 75.9 µM | > 75.9 µM
69 | CCOC(=O)c1sc(C(=O)O)cc1-c1cccs1 |  | 234 µM | 501 µM
70 | Cc1ccc(S(=O)(=O)N2CC2CCCCC=O)cc1 (centres undefined) |  | > 200 µM | 31.6 µM
71 | CN1N(c2ccccc2)C(=O)C2=NC=C(C(=O)c3ccccc3)C(=N)C21C (centres undefined) |  | > 200 µM | > 200 µM
72 | NNC(=O)C1C(O)CCC2CN3CCc4c([nH]c5ccccc45)C3CC21 (centres undefined) | inactive |  | 
73 | C/C1=C\C(=O)OC2CC(CCC(C)/C=C/CC1)OC(O)(C1CSC(=O)N1)C2 (centres undefined) |  | > 129 µM | 3.98 µM
74 | O=C(O)COCC(=O)N(CCOCCN(Cc1ccccc1)C(=O)COCC(=O)O)Cc1ccccc1 |  | > 200 µM | > 200 µM
75 | CC(=O)O/N=C(Cl)/C(Cl)=N/OC(C)=O | inactive |  | 
76 | OC(=Nc1cc(C(O)=Nc2cc(C(O)=Nc3cc(C(O)=Nc4ccc(C5=NCCN5)cc4)cc(C4=NCCN4)c3)cc(C3=NCCN3)c2)cc(C2=NCCN2)c1)c1ccc(C(O)=Nc2cc(C(O)=Nc3cc(C(O)=Nc4cc(C(O)=Nc5ccc(C6=NCCN6)cc5)cc(C5=NCCN5)c4)cc(C4=NCCN4)c3)cc(C3=NCCN3)c2)cc1 |  | 14.5 µM | > 100 µM
77 | Nn1c(-c2ccccc2)nn(C(=O)c2ccccc2)c1=O |  | > 200 µM | > 200 µM
78 | O=c1ccnc2ccc3n[nH][nH]c3c12 | inactive |  | 
79 | O=C1C[C@H](c2ccccc2)C2(C(=O)c3ccccc3C2=O)[C@@H](c2ccccc2)C1 |  | 51.3 µM | 102 µM
80 | COc1cc(OC)c2c(=O)cc(-c3ccncc3)oc2c1 | inactive |  | 
81 | O=C(CN1CCOCC1)c1ccc2c(c1)oc(=O)n2CCN1CCOCC1 |  | > 200 µM | > 200 µM
82 | COC(=O)c1cc(C(=CCCCCO)c2cc(Cl)c(OC)c(C(=O)OC)c2)cc(Cl)c1OC |  | > 200 µM | 23.4 µM
83 | Brc1ccc(CCNCCN2CCCCC2)cc1 |  | > 102 µM | 29.5 µM
84 | Clc1cccc(-c2sc(-c3cccs3)cc2Cc2cccs2)c1 |  | > 200 µM | 141 µM
85 | C[n+]1cn(CC(=O)c2ccccc2)c(C(N)=O)c1N |  | > 263 µM | 214 µM
